# Entries after “also recorded” stand apart in the source; their conditions may differ.
# Legend:
# [1] = system: human nasopharyngeal tumour; assay: Intralesional injection of human nasopharyngeal tumour in SCID-NOD mice; assay type: in vivo, mouse; conditions: up to 3 injections, total of 25 μg in 25% propylene glycol-saline, 2 mice
# Method: A second mouse model was tested in a pilot study, involving an 8 mm diameter human nasopharyngeal tumour implanted and growing subcutaneously on the neck of a SCID-NOD mouse. Up to 3 injections of EBI-46 (total of 25 μg in 75 μL25% propylene glycol-saline) were made into the NPC tumours of 2 mice.
# Solubility tests = assay type: physicochemical
# Description: It requires a small amount of such solvents to form aqueous solutions. […] Higher solubilities may well be achieveable.
# Bacillus subtilis = assay: ProTOX (Bs) antibacterial bioassay; assay type: cell-based
# Description: ProTOX, (alternatively referred to herein as Bs) is an antibacterial bioassay, broadly applicable to most aerobic and anaerobic bacteria. The bioassay features a solid phase agar base into which the test compound has been incorporated together with a chromogen. As the bacteria multiply in the well, the chromogen is metabolised from blue in a two-step process to a colourless compound. Compounds with potent bactericidal activity inhibit bacterial metabolism of the chromogen while bacteriostatic compounds induce limited metabolism as indicated by an intermediate pink colour. ProTOX is broadly applicable to a range of gram-positive and gram-negative bacteria under aerobic and microaerophilic conditions. ProTOX assays were carried out using Bacillus subtilis.
# Briefly, in ProTOX, the bacteria (24 hour broth) were applied to the surface of an agar matrix containing the test sample and allowed to grow for 48 hours. The assay was monitored at 24 and 48 hours and the active wells noted. Known antibiotics yield consistent colour transitions which are concentration and time dependent. These patterns provide an important guide to the early recognition of interesting characteristics.
# [2] = system: NS1 murine myeloma cell line; assay: CyTOX (Cy) chromogenic cytotoxicity bioassay; assay type: cell-based
# Description: CyTOX (alternatively referred to herein as Cy) is a microtitre plate bioassay use to identify potential antitumour actives. CyTOX is a chromogenic bioassay with broad application to a wide range of tumour and non-tumour cell lines.
# CyTOX features a liquid media into which the test compound has been incorporated together with a novel chromogen. As the cells grow and divide the chromogen is metabolised from purple in a single step process to a colourless metabolite. CyTOX was undertaken using NS1 murine myeloma cell line as a guide to mammalian cell toxicity.
# Briefly, in CyTOX the cells were applied to the media containing the test chemical and allowed to grow for 72 hours. The assay was monitored at 24, 48 and 72 hours and the active wells identified.
# B16 mouse melanoma = assay: Topical treatment of B16 melanoma tumours in C57BL/6 mice; assay type: in vivo
# Method: Tumour cells were injected subcutaneously (2 million cells/site in 50 μL culture medium for LK2 cells, 0.5 million for B16) into 4 sites each on the flanks of nude mice (for LK2 cells) or C57BL/6 mice (B16 mouse melanoma cells). When tumours became visible (2-4 mm diameter) five to 10 days after injection of cells, 37 μg of EBI-46 in 25 μL, of isopropanol gel was applied to each tumour site, each day for 3 days. Tumour size was measured with calipers at appropriate intervals.
# (§1) Animal experiments were conducted under Queensland Institute of Medical Research (QIMR) Animal Ethics Committee approvals. The B16 mouse melanoma model was obtained by injecting 0.5 million B16 mouse melanoma cells subcutaneously into each of the 2 flanks of a male C57BL/6 mouse. The human tumour xenografts were obtained by injecting 2 million of the respective tumour cell line into each of 4 sites on the flanks of male nude mice (BALB/c background). EBI-46 was applied: (a) topically by dilution of a concentrated solution in acetone into an isopropanol gel, once a day for 3 days; (b) intralesionally by injection into the tumour of drug dissolved in 25% propylene glycol-0.1 M saline, (c) systemically by injection intraperitoneally in 25% propylene glycol in 0.1 M saline. Tumour size was measured with electronic callipers in mm and converted to volume (cubic mm) using the formula: Tumour volume=length×breadth×breadth/2. Results
# Topical application of EBI-46 in an isopropanol gel was carried out on the aggressive B16 mouse melanoma in its natural (syngeneic) host, C57BL/6 mice (0.5 million tumour cells injected per site).
# The frequency (1 daily dose for 3 days only) and dose level for topical application of PKC activators was selected on the basis of in vitro activity on cell lines. The materials were dissolved in acetone and diluted into an isopropanol gel for topical application.
# The aggressive and rapidly growing B16 mouse melanoma is recognised as a very stringent tumour model in which to test anticancer agents. Stringency was further increased by injecting at least 10× more tumour cells than the minimum required to form a tumour in the animal. […] Such tumours could be distinguished from subcutaneous tumours by their immobility when the skin was pulled around the body of the animal.
# Trichophyton rubrum = assay: MycoTOX (Tr) antifungal bioassay; assay type: cell-based
# Method: MycoTOX (alternatively referred to herein as Tr) is a non-chromogenic bioassay used to detect activity against filamentous fungal pathogens of plants and animals. The bioassay features a solid phase agar base into which the test compound has been incorporated. As the growth patterns of filamentous fungi are readily apparent on the agar surface the extent of mycelial growth, sporulation (if relevant to the species under investigation) and colour changes with maturation are measured.
# MycoTOX, involves a fungus (spore suspension or mycelial fragments) being applied to the surface of an agar matrix containing the test chemical and allowed to grow for a period of up to a week (depending on species). The assay is monitored at two discrete times to identify key development phases in the life cycle (for example mycelial growth and extent of sporulation) and the active wells noted. The monitoring times are dependent on the fungal species under investigation.
# The MycoTOX assays were carried out using Trichophyton rubrum. The MycoTOX test is alternatively referred to as Tr to indicate the use of Trichophyton rubrum.
# [3] = system: murine B-cell lymphoma line A20; assay: Systemic (intraperitoneal) treatment of A20 lymphoma in SCID-NOD mice; assay type: in vivo; conditions: 5 doses of 20-25 μg from day 18, one mouse
# Method: as §1
# The murine B-cell lymphoma line A20 was used as an experimental model because it has been reported to grow well in mice and closely models the human situation.
# SCID-NOD mice (BALB/c background) were shaved and 10E7 A20 cells injected subcutaneously (2 sites per mouse). The tumours tended to grow in a flat, diffuse manner and became raised and measurable at the 10E7 sites only after about 15 days. […]
# [4] = Table 6a, last well with activity, real value may be lower
# [5] = topical, approximately 150 μg/site
smiles,measurement,setting,value
"C/C=C(\C)C(=O)OC1C(C)C2(O)C(C3OC3(CO)C(O)C3(O)C(=O)C(C)=CC32)C2C(C)(C)C12OC(=O)C(C)CC (stereo not shown) [EBI-46, 12-tigloyl-13-(2-methylbutanoyl)-6,7-epoxy-4,5,9,12,13,20-hexahydroxy-1-tiglian-3-one]",tumour outcome,[1],no sign of residual tumour; also recorded: delayed but not ablated
same,solubility,Solubility tests; 5 μg/mL in 99.9% water,100%
same,solubility,Solubility tests; 50 μg/mL in 99% water,100%
same,solubility,Solubility tests; 450 μg/mL in 90% water,100%
same,solubility in vehicle,"Solubility tests; 25% propylene glycol-saline, 250 μg/mL",no sign of insolubility
same,solubility in vehicle,Solubility tests; PEG 400 containing 10% ethanol,freely soluble
same,solubility in organic solvents,"Solubility tests; acetone, alcohols and PEG 400",highly soluble
same,Bs Titre,Bacillus subtilis,1
same,Bs LD99,Bacillus subtilis; [4],50 pg/mL
same,Cy Titre,[2],8
same,Cy LD99,[2]; [4],7.8 pg/mL
same,systemic toxicity or lung metastases on post mortem,B16 mouse melanoma; topical 37 μg per site once a day for 3 days,There were no signs of
same,tumour growth,B16 mouse melanoma; topical 37 μg per site once a day for 3 days starting at day 5,inhibition of tumour growth.
same,inflammatory response,B16 mouse melanoma; [5],mild
same,systemic toxicity or lung metastases,B16 mouse melanoma; [5],no sign of systemic toxicity or lung metastases
same,tumour sites cured,B16 mouse melanoma; [5],one site apparently cured
same,tumour response,"B16 mouse melanoma; topical, approximately 150 μg/site, 1 daily dose for 3 days",good response
same,Tr Titre,Trichophyton rubrum,0
same,tumour growth,[3],strongly inhibited

# Source: patent publication US10980769B2, “Tiglien-3-one derivatives” (QBIOTICS PTY LTD, priority 2005, dated 2021)
